Data on one compound can be found in patent publication US7888464B2, “Hepatitis C virus inhibitors” (Bristol-Myers Squibb Company, priority 2006, dated 2011).

This test deals with T1, HCV NS3/4A protease complex, H77 strain (1a genotype) (Hepatitis C virus genotype 1a, UniProt P27958, C1454S/C1711G).
T1 construct: DNA encoding the recombinant HCV NS3/4A protease complex (amino acids 1027 to 1711) for these strains; made in house; host or cells: Escherichia coli BL21 (DE3), pET21b
In words: FRET peptide assay to monitor HCV NS3/4A proteolytic activity (H77 strain). The format is biochemical. The conditions noted are these: read-out: IC50 against NS3/4A H77 strain. The source says: HCV NS3 protease complexes, derived from the BMS strain, H77 strain or J4L6S strain, were generated, as described below. These purified recombinant proteins were generated for use in a homogeneous assay (see below) to provide an indication of how effective compounds of the present disclosure would be in inhibiting HCV NS3 proteolytic activity.
Serum from an HCV-infected patient was obtained from Dr. T. Wright, San Francisco Hospital. An engineered full-length cDNA (compliment deoxyribonucleic acid) template of the HCV genome (BMS strain) was constructed from DNA fragments obtained by reverse transcription-PCR(RT-PCR) of serum RNA (ribonucleic acid) and using primers selected on the basis of homology between other genotype la strains. From the determination of the entire genome sequence, a genotype la was assigned to the HCV isolate according to the classification of Simmonds et al. (See P Simmonds, K A Rose, S Graham, S W Chan, F McOmish, B C Dow, E A Follett, P L Yap and H Marsden, J. Clin. Microbiol., 31(6), 1493-1503 (1993)). […]

T1 sequence (P27958 1027-1711 C1454S/C1711G, one chain of several): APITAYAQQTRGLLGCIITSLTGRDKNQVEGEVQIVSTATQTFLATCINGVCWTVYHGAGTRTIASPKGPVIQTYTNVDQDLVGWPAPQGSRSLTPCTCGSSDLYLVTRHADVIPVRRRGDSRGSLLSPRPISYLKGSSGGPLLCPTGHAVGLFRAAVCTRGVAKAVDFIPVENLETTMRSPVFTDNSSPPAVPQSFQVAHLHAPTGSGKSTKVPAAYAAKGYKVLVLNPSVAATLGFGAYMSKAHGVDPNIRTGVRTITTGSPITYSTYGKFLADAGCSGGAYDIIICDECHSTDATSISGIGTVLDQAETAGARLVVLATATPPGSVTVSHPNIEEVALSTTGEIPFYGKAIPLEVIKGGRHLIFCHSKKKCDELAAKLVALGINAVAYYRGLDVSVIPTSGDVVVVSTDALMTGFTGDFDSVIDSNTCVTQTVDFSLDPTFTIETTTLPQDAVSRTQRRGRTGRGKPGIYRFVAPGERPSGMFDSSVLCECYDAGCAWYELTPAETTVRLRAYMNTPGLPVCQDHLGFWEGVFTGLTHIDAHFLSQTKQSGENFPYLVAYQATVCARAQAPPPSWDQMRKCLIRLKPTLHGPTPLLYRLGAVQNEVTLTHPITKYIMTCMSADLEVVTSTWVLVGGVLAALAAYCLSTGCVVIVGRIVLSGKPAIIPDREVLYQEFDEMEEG

Consider `C=C[C@@H]1C[C@]1(NC(=O)[C@@H]1C[C@@](O)(c2ccc(-c3ccccc3)cc2)CN1C(=O)[C@@H](NC(=O)OC(C)(C)C)C(C)(C)C)C(=O)NS(=O)(=O)C1CC1` [Compound 3], for which the IC50 was found to be 1.6 nM.
